Laboratory results reported in patent US11618743B2, “Herbicidal compounds” (SYNGENTA PARTICIPATIONS AG, priority 2017, dated 2023).

What was measured:
Assay in all cases: Post-emergence efficacy, Method A
Assay type in all cases: in vivo
[1] = system: Amaranthus palmeri (AMAPA); conditions: Application rate 500 g/Ha, evaluated after 13 days; for Control of weed species AMAPA after post-emergence application (100=total damage to plant; 0=no damage to plant): Method A
Method in brief: (§1)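 Foliar application to young plants (14 d post-sowing) in standard soil. Growth conditions before and after: 24/16 °C, 14 h light, 65% humidity. Percent damage read at 13 days after treatment.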

[2] = system: Chenopodium album (CHEAL); conditions: Application rate 500 g/Ha, evaluated after 13 days; for Control of weed species CHEAL after post-emergence application (100=total damage to plant; 0=no damage to plant): Method A
Method in brief: as §1

[3] = system: Digitaria sanguinalis (DIGSA); conditions: Application rate 500 g/Ha, evaluated after 13 days; for Control of weed species DIGSA after post-emergence application (100=total damage to plant; 0=no damage to plant): Method A
Method in brief: as §1

[4] = system: Echinochloa crus-galli (ECHCG); conditions: Application rate 500 g/Ha, evaluated after 13 days; for Control of weed species ECHCG after post-emergence application (100=total damage to plant; 0=no damage to plant): Method A
Method in brief: as §1

Eleusine indica (ELEIN) = conditions: Application rate 500 g/Ha, evaluated after 13 days; for Control of weed species ELEIN after post-emergence application (100=total damage to plant; 0=no damage to plant): Method A
Method in brief: as §1

[5] = system: Euphorbia heterophylla (EPHHL); conditions: Application rate 500 g/Ha, evaluated after 13 days; for Control of weed species EPHHL after post-emergence application (100=total damage to plant; 0=no damage to plant): Method A
Method in brief: as §1

[6] = system: Ipomoea hederacea (IPOHE); conditions: Application rate 500 g/Ha, evaluated after 13 days; for Control of weed species IPOHE after post-emergence application (100=total damage to plant; 0=no damage to plant): Method A
Method in brief: as §1

Lolium perenne (LOLPE) = conditions: Application rate 500 g/Ha, evaluated after 13 days; for Control of weed species LOLPE after post-emergence application (100=total damage to plant; 0=no damage to plant): Method A
Method in brief: as §1

Setaria faberi (SETFA) = conditions: Application rate 500 g/Ha, evaluated after 13 days; for Control of weed species SETFA after post-emergence application (100=total damage to plant; 0=no damage to plant): Method A
Method in brief: as §1

[7] = 100=total damage to plant, 0=no damage

Compound	Control of weed species AMAPA after post-emergence application (100=total damage to plant; 0=no damage to plant) [1]	Control of weed species CHEAL after post-emergence application (100=total damage to plant; 0=no damage to plant) [2]	Control of weed species DIGSA after post-emergence application (100=total damage to plant; 0=no damage to plant) [3]	Control of weed species ECHCG after post-emergence application (100=total damage to plant; 0=no damage to plant) [4]	Control of weed species ELEIN after post-emergence application (100=total damage to plant; 0=no damage to plant) (Eleusine indica (ELEIN))	Control of weed species EPHHL after post-emergence application (100=total damage to plant; 0=no damage to plant) [5]	Control of weed species IPOHE after post-emergence application (100=total damage to plant; 0=no damage to plant) [6]	Control of weed species LOLPE after post-emergence application (100=total damage to plant; 0=no damage to plant) (Lolium perenne (LOLPE))	Control of weed species SETFA after post-emergence application (100=total damage to plant; 0=no damage to plant) (Setaria faberi (SETFA))	further results
Nc1cc(-c2cc[n+](CCS(=O)(=O)[O-])nc2)nc(N)n1 [Compound A187]										pest or weed control at 500 g/ha ([1]; Amaranthus palmeri, post-emergence, 312 h, 100=total damage to plant, 0=no damage, read-out: Control of weed species after post-emergence application, AMAPA): 50%; pest or weed control at 500 g/ha ([2]; Chenopodium album, post-emergence, 312 h, 100=total damage to plant, 0=no damage, read-out: Control of weed species after post-emergence application, CHEAL): 40%; pest or weed control at 500 g/ha ([3]; Digitaria sanguinalis, post-emergence, 312 h, 100=total damage to plant, 0=no damage, read-out: Control of weed species after post-emergence application, DIGSA): 20%; pest or weed control at 500 g/ha ([4]; Echinochloa crus-galli, post-emergence, 312 h, 100=total damage to plant, 0=no damage, read-out: Control of weed species after post-emergence application, ECHCG): 20%; pest or weed control at 500 g/ha (Eleusine indica (ELEIN); Eleusine indica, post-emergence, 312 h, 100=total damage to plant, 0=no damage, read-out: Control of weed species after post-emergence application, ELEIN): 10%; pest or weed control at 500 g/ha ([5]; Euphorbia heterophylla, post-emergence, 312 h, 100=total damage to plant, 0=no damage, read-out: Control of weed species after post-emergence application, EPHHL): 50%; pest or weed control at 500 g/ha ([6]; Ipomoea hederacea, post-emergence, 312 h, 100=total damage to plant, 0=no damage, read-out: Control of weed species after post-emergence application, IPOHE): 20%; pest or weed control at 500 g/ha (Lolium perenne (LOLPE); Lolium perenne, post-emergence, 312 h, 100=total damage to plant, 0=no damage, read-out: Control of weed species after post-emergence application, LOLPE): 10%; pest or weed control at 500 g/ha (Setaria faberi (SETFA); Setaria faberi, post-emergence, 312 h, 100=total damage to plant, 0=no damage, read-out: Control of weed species after post-emergence application, SETFA): 10%
CCOP(=O)(CCC[n+]1ccc(-c2ncccn2)cn1)OCC.O=C([O-])C(F)(F)F [Compound A204]										Control of weed species after post-emergence application, AMAPA [1, 7]: 10; Control of weed species after post-emergence application, CHEAL [2, 7]: 20; Control of weed species after post-emergence application, DIGSA [3, 7]: 0; Control of weed species after post-emergence application, ECHCG [4, 7]: 0; Control of weed species after post-emergence application, ELEIN (Eleusine indica (ELEIN); [7]): 0; Control of weed species after post-emergence application, EPHHL [5, 7]: 0; Control of weed species after post-emergence application, IPOHE [6, 7]: 0; Control of weed species after post-emergence application, LOLPE (Lolium perenne (LOLPE); [7]): 0; Control of weed species after post-emergence application, SETFA (Setaria faberi (SETFA); [7]): 0
CCOP(=O)(O)CC[n+]1ccc(-c2ncccn2)cn1.O=C([O-])C(F)(F)F [Compound A113, ethoxy-[2-(4-pyrimidin-2-ylpyridazin-1-ium-1-yl)ethyl]phosphinate]	40	90	60	60	40	100	60	10	50	
N#Cc1cnc(-c2cc[n+](CCS(=O)(=O)[O-])nc2)nc1 [Compound A25]	100	60	50	70	50	40	50	40	60	
Cc1n[n+](CCS(=O)(=O)[O-])ccc1-c1ncccn1 [Compound A88, 2-(3-methyl-4-pyrimidin-2-yl-pyridazin-1-ium-1-yl)ethanesulfonate]	100	70	90	60	90	60	30	60	70	
N[C@@H](C[n+]1ccc(-c2ncccn2)cn1)C(=O)O [Compound A208, [(1S)-1-carboxy-2-(4-pyrimidin-2-ylpyridazin-1-ium-1-yl)ethyl]ammonium 2,2,2-trifluoroacetate]										Control of weed species after post-emergence application, AMAPA [1, 7]: 100; Control of weed species after post-emergence application, CHEAL [2, 7]: 80; Control of weed species after post-emergence application, DIGSA [3, 7]: 40; Control of weed species after post-emergence application, ECHCG [4, 7]: 30; Control of weed species after post-emergence application, ELEIN (Eleusine indica (ELEIN); [7]): 60; Control of weed species after post-emergence application, EPHHL [5, 7]: 50; Control of weed species after post-emergence application, IPOHE [6, 7]: 20; Control of weed species after post-emergence application, LOLPE (Lolium perenne (LOLPE); [7]): 10; Control of weed species after post-emergence application, SETFA (Setaria faberi (SETFA); [7]): 60
COc1cc(C)nc(-c2cc[n+](CCS(=O)(=O)[O-])nc2)n1 [Compound A94]	70	90	30	30	20	40	30	20	40	
CCOP(=O)(CC[n+]1ccc(-c2ncccn2)cn1)OCC.O=C([O-])C(F)(F)F [Compound A124, 1-(2-diethoxyphosphorylethyl)-4-pyrimidin-2-yl-pyridazin-1-ium]	0	0	10	0	0	0	0	0	20	
COC(=O)C[n+]1ccc(-c2ncccn2)cn1.[Br-] [Compound A2, methyl 2-(4-pyrimidin-2-ylpyridazin-1-ium-1-yl)acetate bromide]	60	20	40	50	30	90	10	0	80	
